In paper PMC3361968 (Chemistry & biology, 2012) one finds EC50 data, which are given here for one compound.

In one test the target is cathepsin B (Mus musculus, UniProt P10605). The test is described as follows: activity-based labelling in living RAW cells, SDS-PAGE in-gel fluorescence. Type of test: cell-based.
In the next test the target is cathepsin S (Mus musculus, UniProt O70370). The test is described as above. The format is cell-based.

Sequence of cathepsin B (P10605 80-126): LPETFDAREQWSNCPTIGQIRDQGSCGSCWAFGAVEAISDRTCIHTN
Sequence of cathepsin B (P10605 129-333): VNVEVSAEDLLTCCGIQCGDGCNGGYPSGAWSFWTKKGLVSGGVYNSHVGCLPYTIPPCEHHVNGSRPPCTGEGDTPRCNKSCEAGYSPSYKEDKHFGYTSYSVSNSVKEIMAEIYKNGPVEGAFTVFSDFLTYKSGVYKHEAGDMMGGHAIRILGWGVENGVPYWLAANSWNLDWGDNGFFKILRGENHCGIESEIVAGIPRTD

By EC50 is commonly meant the midpoint of the concentration-response curve. A high value points to lower potency in that assay. As to `CCN1C(=CC=CC=CC2=[N+](CCCCCC(=O)NCCCC[C@H](NC(=O)[C@H](Cc3ccccc3)NC(=O)OCc3ccccc3)C(=O)COC(=O)c3c(C)cccc3C)c3ccc(S(=O)(=O)O)cc3C2(C)C)C(C)(C)c2cc(S(=O)(=O)O)ccc21` [GB123], the EC50 at cathepsin B came out at 1.6 µM; on cathepsin S, 1.3 µM.
